Legend:
Assay type in all cases: functional
MCF7 [1] = assay: Induction of apoptosis in human MCF7 cells assessed as nuclear debris at 300 nM by 7-AAD/Annexin staining-based assay (reference value: 0.2 to 3%)
PC-3 [2] = assay: Induction of apoptosis in human p53-null PC3 cells assessed as nuclear debris at 300 nM by 7-AAD/Annexin staining-based assay (reference value: 0.1 to 0.5%)
A2780 [3] = assay: Induction of apoptosis in human A2780 cells assessed as late apoptotic cells at 300 nM by 7-AAD/Annexin staining-based assay (reference value: 1.2 to 2.2%)
A2780 [4] = assay: Induction of apoptosis in human A2780 cells assessed as early apoptotic cells at 100 nM by 7-AAD/Annexin staining-based assay (reference value: 1.7 to 2.1%)
PC-3 [5] = assay: Induction of apoptosis in human p53-null PC3 cells assessed as viable cells at 300 nM by 7-AAD/Annexin staining-based assay (reference value: 96.5 to 98.6%); conditions: read-out: Activity
MCF7 [6] = assay: Induction of apoptosis in human MCF7 cells assessed as viable cells at 1000 nM by 7-AAD/Annexin staining-based assay (reference value: 92.6 to 96.8%); conditions: read-out: Activity
PC-3 [7] = assay: Induction of apoptosis in human p53-null PC3 cells assessed as viable cells at 100 nM by 7-AAD/Annexin staining-based assay (reference value: 96.5 to 98.6%); conditions: read-out: Activity
MCF7 [8] = assay: Induction of apoptosis in human MCF7 cells assessed as nuclear debris at 1000 nM by 7-AAD/Annexin staining-based assay (reference value: 0.2 to 3%)
MCF7 [9] = assay: Induction of apoptosis in human MCF7 cells assessed as late apoptotic cells at 100 nM by 7-AAD/Annexin staining-based assay (reference value: 1 to 2.1%)
PC-3 [10] = assay: Induction of apoptosis in human p53-null PC3 cells assessed as viable cells at 1000 nM by 7-AAD/Annexin staining-based assay (reference value: 96.5 to 98.6%); conditions: read-out: Activity
PC-3 [11] = assay: Induction of apoptosis in human p53-null PC3 cells assessed as nuclear debris at 100 nM by 7-AAD/Annexin staining-based assay (reference value: 0.1 to 0.5%)
MFE-296 [12] = assay: Induction of apoptosis in human MFE296 cells assessed as late apoptotic cells at 100 nM by 7-AAD/Annexin staining-based assay (reference value: 3.6 to 6.6%)
MFE-296 [13] = assay: Induction of apoptosis in human MFE296 cells assessed as early apoptotic cells at 100 nM by 7-AAD/Annexin staining-based assay (reference value: 1.5 to 2.1%)
A2780 [14] = assay: Induction of apoptosis in human A2780 cells assessed as nuclear debris at 100 nM by 7-AAD/Annexin staining-based assay (reference value: 0.3 to 1.1%)
MFE-296 [15] = assay: Induction of apoptosis in human MFE296 cells assessed as nuclear debris at 1000 nM by 7-AAD/Annexin staining-based assay (reference value: 0.4 to 0.8%)
PC-3 [16] = assay: Induction of apoptosis in human p53-null PC3 cells assessed as late apoptotic cells at 1000 nM by 7-AAD/Annexin staining-based assay (reference value: 0.4 to 1.6%)
T47D [17] = assay: Induction of apoptosis in human T47D cells assessed as late apoptotic cells at 1000 nM by 7-AAD/Annexin staining-based assay (reference value: 3 to 13.4%)
MFE-280 = assay: Induction of apoptosis in human MFE280 cells assessed as viable cells at 1000 nM by 7-AAD/Annexin staining-based assay (reference value: 84.9 to 87.7%); conditions: read-out: Activity
T47D [18] = assay: Induction of apoptosis in human T47D cells assessed as viable cells at 1000 nM by 7-AAD/Annexin staining-based assay (reference value: 74.5 to 94.5%); conditions: read-out: Activity
A2780 [19] = assay: Induction of apoptosis in human A2780 cells assessed as early apoptotic cells at 1000 nM by 7-AAD/Annexin staining-based assay (reference value: 1.7 to 2.1%)
A2780 [20] = assay: Induction of apoptosis in human A2780 cells assessed as late apoptotic cells at 1000 nM by 7-AAD/Annexin staining-based assay (reference value: 1.2 to 2.2%)
MCF7 [21] = assay: Induction of apoptosis in human MCF7 cells assessed as early apoptotic cells at 1000 nM by 7-AAD/Annexin staining-based assay (reference value: 2 to 2.7%)
A2780 [22] = assay: Induction of apoptosis in human A2780 cells assessed as early apoptotic cells at 300 nM by 7-AAD/Annexin staining-based assay (reference value: 1.7 to 2.1%)
A2780 [23] = assay: Induction of apoptosis in human A2780 cells assessed as viable cells at 300 nM by 7-AAD/Annexin staining-based assay (reference value: 95 to 96.7%); conditions: read-out: Activity
PC-3 [24] = assay: Induction of apoptosis in human p53-null PC3 cells assessed as early apoptotic cells at 100 nM by 7-AAD/Annexin staining-based assay (reference value: 0.6 to 1.4%)
MCF7 [25] = assay: Induction of apoptosis in human MCF7 cells assessed as nuclear debris at 100 nM by 7-AAD/Annexin staining-based assay (reference value: 0.2 to 3%)
A2780 [26] = assay: Induction of apoptosis in human A2780 cells assessed as late apoptotic cells at 100 nM by 7-AAD/Annexin staining-based assay (reference value: 1.2 to 2.2%)
MFE-296 [27] = assay: Induction of apoptosis in human MFE296 cells assessed as early apoptotic cells at 1000 nM by 7-AAD/Annexin staining-based assay (reference value: 1.5 to 2.1%)
T47D [28] = assay: Induction of apoptosis in human T47D cells assessed as viable cells at 300 nM by 7-AAD/Annexin staining-based assay (reference value: 74.5 to 94.5%); conditions: read-out: Activity
A2780 [29] = assay: Induction of apoptosis in human A2780 cells assessed as nuclear debris at 1000 nM by 7-AAD/Annexin staining-based assay (reference value: 0.3 to 1.1%)
MFE-296 [30] = assay: Induction of apoptosis in human MFE296 cells assessed as viable cells at 300 nM by 7-AAD/Annexin staining-based assay (reference value: 90.9 to 94.4%); conditions: read-out: Activity
PC-3 [31] = assay: Induction of apoptosis in human p53-null PC3 cells assessed as early apoptotic cells at 300 nM by 7-AAD/Annexin staining-based assay (reference value: 0.6 to 1.4%)
MCF7 [32] = assay: Induction of apoptosis in human MCF7 cells assessed as viable cells at 100 nM by 7-AAD/Annexin staining-based assay (reference value: 92.6 to 96.8%); conditions: read-out: Activity
MFE-296 [33] = assay: Induction of apoptosis in human MFE296 cells assessed as nuclear debris at 100 nM by 7-AAD/Annexin staining-based assay (reference value: 0.4 to 0.8%)
MFE-296 [34] = assay: Induction of apoptosis in human MFE296 cells assessed as early apoptotic cells at 300 nM by 7-AAD/Annexin staining-based assay (reference value: 1.5 to 2.1%)

SMILES | Activity (MCF7 [1]) [%] | Activity (PC-3 [2]) [%] | Activity (A2780 [3]) [%] | Activity (A2780 [4]) [%] | viability at 0.3 µM (PC-3 [5]) [%] | viability at 1 µM (MCF7 [6]) [%] | viability at 0.1 µM (PC-3 [7]) [%] | Activity (MCF7 [8]) [%] | Activity (MCF7 [9]) [%] | viability at 1 µM (PC-3 [10]) [%] | Activity (PC-3 [11]) [%] | Activity (MFE-296 [12]) [%] | Activity (MFE-296 [13]) [%] | Activity (A2780 [14]) [%] | Activity (MFE-296 [15]) [%] | Activity (PC-3 [16]) [%] | Activity (T47D [17]) [%] | viability at 1 µM (MFE-280) [%] | viability at 1 µM (T47D [18]) [%] | Activity (A2780 [19]) [%] | further results
CN[C@@H]1C[C@H]2O[C@@](C)([C@@H]1OC)n1c3ccccc3c3c4c(c5c6ccccc6n2c5c31)C(=O)NC4 [STAUROSPORINE] | 1.1 | 0.1 | 8.5 | 5.4 | 98.6 | 62.1 | 98 | 9.6 | 3.1 | 97.3 | 0.1 | 6.6 | 7.5 | 0.4 | 15.1 | 1.2 | 4.8 | 47.5 | 88.4 | 5.1 | Activity (A2780 [20]): 32.8%; Activity (MCF7 [21]): 3.5%; Activity (A2780 [22]): 3.4%; viability at 0.3 µM (A2780 [23]): 87.1%; Activity (PC-3 [24]): 1.2%; Activity (MCF7 [25]): 0.6%; Activity (A2780 [26]): 3.7%; Activity (MFE-296 [27]): 4.4%; viability at 0.3 µM (T47D [28]): 90.6%; Activity (A2780 [29]): 4.3%; viability at 0.3 µM (MFE-296 [30]): 57.2%; Activity (PC-3 [31]): 1%; viability at 0.1 µM (MCF7 [32]): 93%; Activity (MFE-296 [33]): 2.4%; Activity (MFE-296 [34]): 6.8%
O=C(Nc1ccc(-c2cccc(Cl)c2)cn1)c1cncnc1 | 0.5 | 0.2 | 3.5 | 3.6 | 98.2 | 94 | 98.9 | 0.3 | 1.9 | 97 | 0.1 | 5.7 | 2.1 | 0.5 | 2.9 | 1.2 | 4.5 | 85.1 | 82.9 | 4.5 | Activity (A2780 [20]): 4.1%; Activity (MCF7 [21]): 3.3%; Activity (A2780 [22]): 3.5%; viability at 0.3 µM (A2780 [23]): 92.1%; Activity (PC-3 [24]): 0.6%; Activity (MCF7 [25]): 0.4%; Activity (A2780 [26]): 3.2%; Activity (MFE-296 [27]): 3.7%; viability at 0.3 µM (T47D [28]): 86.5%; Activity (A2780 [29]): 1.4%; viability at 0.3 µM (MFE-296 [30]): 86.5%; Activity (PC-3 [31]): 0.8%; viability at 0.1 µM (MCF7 [32]): 94.4%; Activity (MFE-296 [33]): 1.3%; Activity (MFE-296 [34]): 2.8%

— ChEMBL document CHEMBL4043145, “Pyridine-pyrimidine amides that prevent HGF-induced epithelial scattering by two distinct mechanisms” (Bioorg Med Chem Lett, 2017)
